Reference: ChEMBL document CHEMBL1149425, “A novel class of sodium/calcium exchanger inhibitors: design, synthesis, and structure-activity relationships of 4-phenyl-3-(piperidin-4-yl)-3,4-dihydro-2(1H)-quinazolinone derivatives” (Bioorg Med Chem Lett, 2006)
Peptide text beside a SMILES is read from it.

Target: Sodium/calcium exchanger 1 (Cavia porcellus) (UniProt P48766)
Test: Inhibitory activity against Sodium/Calcium exchanger in isolated guinea pig left atria

Sequence of Sodium/calcium exchanger 1 (Cavia porcellus) (P48766 whole entry, looked up): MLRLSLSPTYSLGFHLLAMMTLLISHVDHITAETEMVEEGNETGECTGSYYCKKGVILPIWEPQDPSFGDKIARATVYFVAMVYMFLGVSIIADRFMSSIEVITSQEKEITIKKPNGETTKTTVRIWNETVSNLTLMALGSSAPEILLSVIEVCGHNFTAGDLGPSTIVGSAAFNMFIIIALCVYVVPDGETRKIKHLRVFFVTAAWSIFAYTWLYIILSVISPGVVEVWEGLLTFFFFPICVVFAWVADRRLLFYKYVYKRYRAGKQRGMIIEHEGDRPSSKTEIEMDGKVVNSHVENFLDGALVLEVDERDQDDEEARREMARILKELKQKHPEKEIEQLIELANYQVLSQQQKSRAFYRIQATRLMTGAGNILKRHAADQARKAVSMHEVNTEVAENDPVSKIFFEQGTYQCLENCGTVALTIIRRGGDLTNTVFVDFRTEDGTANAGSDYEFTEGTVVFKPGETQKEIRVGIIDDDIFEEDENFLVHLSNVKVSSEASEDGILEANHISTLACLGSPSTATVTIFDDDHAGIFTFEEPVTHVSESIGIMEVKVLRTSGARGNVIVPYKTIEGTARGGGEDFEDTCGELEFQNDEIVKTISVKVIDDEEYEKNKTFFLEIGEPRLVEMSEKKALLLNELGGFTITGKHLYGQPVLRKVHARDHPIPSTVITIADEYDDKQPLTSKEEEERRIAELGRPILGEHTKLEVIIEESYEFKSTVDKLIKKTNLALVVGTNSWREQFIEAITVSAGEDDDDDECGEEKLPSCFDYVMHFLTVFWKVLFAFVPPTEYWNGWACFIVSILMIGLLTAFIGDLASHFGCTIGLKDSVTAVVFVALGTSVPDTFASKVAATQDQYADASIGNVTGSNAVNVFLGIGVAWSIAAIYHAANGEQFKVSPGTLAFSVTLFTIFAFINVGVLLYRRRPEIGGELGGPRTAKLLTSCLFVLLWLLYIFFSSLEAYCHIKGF

First: O=C1Nc2ccccc2C(c2ccccc2)N1C1CCN(Cc2ccc(Cl)cc2)CC1 (stereo not given)
Second: COc1ccc(CN2CCC(N3C(=O)Nc4ccccc4C3c3ccccc3)CC2)cc1 (stereo not given)
The IC30 of the first is 2.5-fold higher: 620 nM for the first, 250 nM for the second.

COc1cc(CN2CCC(N3C(=O)Nc4ccccc4C3c3ccccc3)CC2)cc(OC)c1OC (stereo not given) and COc1cc(CN2CCC(N3C(=O)Nc4ccccc4C3c3ccccc3)CC2)cc(OC)c1 (stereo not given) cannot be ordered by IC30: > 10000 nM for the first, > 10000 nM for the second.

Compared with O=C1Nc2ccccc2C(c2ccccc2)N1C1CCN(Cc2ccco2)CC1 (stereo not given), O=C1Nc2ccccc2C(c2ccccc2)N1C1CCN(Cc2cccs2)CC1 (stereo not given) is 4.9-fold lower in IC30: 8300 nM for the first, 1700 nM for the second.

Going from CSCC[C@H](NC(=O)[C@@H](N)C(C)C)C(=O)N[C@@H](CCCN=C(N)N)C(=O)N[C@@H](Cc1ccccc1)C(N)=O (H-VMRF-NH2) to COCc1cccc(CN2CCC(N3C(=O)Nc4ccccc4C3c3ccccc3)CC2)c1 (stereo not given), the IC30 falls from 10000 nM to 490 nM (20-fold).

Compared with O=C1Nc2ccccc2C(c2ccccc2)N1C1CCN(Cc2ccccc2)CC1 (stereo not given), O=C1Nc2ccccc2C(c2ccccc2)N1C1CCN(Cc2ccccc2Cl)CC1 (stereo not given) is 530-fold higher in IC30: 17 nM for the first, 9000 nM for the second.

First: COc1ccccc1CN1CCC(N2C(=O)Nc3ccccc3C2c2ccccc2)CC1 (stereo not given)
Second: COc1cccc(CN2CCC(N3C(=O)Nc4ccccc4C3c3ccccc3)CC2)c1 (stereo not given)
The IC30 of the first is higher: > 10000 nM for the first, 8.4 nM for the second.

First: O=C1Nc2ccccc2C(c2ccccc2)N1C1CCN(Cc2ccoc2)CC1 (stereo not given)
Second: O=C1Nc2ccccc2C(c2ccccc2)N1C1CCN(Cc2ccsc2)CC1 (stereo not given)
The IC30 of the first is 230-fold lower: 17 nM for the first, 3900 nM for the second.

First: O=C1Nc2ccccc2C(c2ccccc2)N1C1CCN(Cc2ccncc2)CC1 (stereo not given)
Second: O=C1Nc2ccccc2C(c2ccccc2)N1C1CCN(Cc2cccnc2)CC1 (stereo not given)
The IC30 of the first is 3-fold higher: 480 nM for the first, 160 nM for the second.

O=C1Nc2ccccc2C(c2ccccc2)N1C1CCN(Cc2ccccn2)CC1 (stereo not given) and Cc1cccc(CN2CCC(N3C(=O)Nc4ccccc4C3c3ccccc3)CC2)c1 (stereo not given) are within 1.5-fold of each other in IC30: 390 nM for the first, 560 nM for the second.

O=C1Nc2ccccc2C(c2ccccc2)N1C1CCN(Cc2cccc(Cl)c2)CC1 (stereo not given) and CCOc1cccc(CN2CCC(N3C(=O)Nc4ccccc4C3c3ccccc3)CC2)c1 (stereo not given) are within 1.5-fold of each other in IC30: 540 nM for the first, 580 nM for the second.
